Results on 1 compound are retold here after patent US11547687B2, “Neprilysin inhibitors” (THERAVANCE BIOPHARMA R&D IP, LLC, priority 2011, dated 2023).

The assay has as its target human NEP (Homo sapiens (Human), UniProt P08473). The assay can be described thus: In vitro enzyme inhibition assay at human NEP (Assay 1). It is filed as biochemical. The conditions noted are these: pKi values at human NEP, reported as ranges.

Structures are written as SMILES.

`CC(C)COC(=O)C(=O)N[C@H](Cc1ccc(-c2cc(Cl)ccc2Cl)cc1)C[C@@H](O)C(=O)O` [Example 3D, (2R,4R)-5-(2′,5′-Dichlorobiphenyl-4-yl)-2-hydroxy-4-(isobutoxyoxalylamino)-pentanoic Acid]: the pKi is given as ≥9.
